Experiments:
[1] = test system: human lung cancer cells EBC-1; experiment: Efficacy in nude mouse tumor-bearing model of human lung cancer cells EBC-1; assay type: in vivo, Balb/c nude mouse
Description: In this assay, the free compound of formula (I) of the present application and different salts of the compound prepared in Examples 1, 2 and 5 were orally administered to a nude mouse tumor-bearing model of human lung cancer cells EBC-1 to study their effects on tumor growth.
Preparation of test compounds: an appropriate weight of the test compound (including the free form of the compound of formula (I) and different salts of the compound prepared in Examples 1, 2 and 5) was weighed, completely suspended/dissolved in an appropriate volume of 0.1% sodium carboxymethyl cellulose, stirred and vortexed to give a uniform solution or suspension.
Methods: All assays were authorized by the Animal Welfare Committee. EBC-1 in the logarithmic growth phase was inoculated into immune-deficient nude mice (BALB/c nude, female, 6-8 weeks old, weighing 18±2 g), subcutaneously on the right back, with a cell inoculation amount of 5×10^6/mouse. After the tumor grew to 150-200 mm^3, the animals were randomly divided into groups, 6 mice per group. The dose of each test substance was set at 15 mg/kg and 7.5 mg/kg (both based on the concentration of the effective formula (I) compound), and administered once a day for about 3 weeks. The test compounds were freshly prepared each day before use. During the assay, the tumor diameter was measured twice a week, and the mice were weighed at the same time. The calculation formula of tumor volume (TV) is: TV=1/2×a×b^2, where a and b represent length and width, respectively. The relative tumor volume (RTV) was calculated based on the measurement results, and the calculation formula is: RTV=Vt/V0, wherein V0 is the tumor volume measured at the time of cage grouping and dosing initiation (i.e., d0), and Vt is the tumor volume at each measurement. The evaluation index of antitumor activity is the relative tumor proliferation rate T/C (%), calculated as follows: T/C (%)=(TRTV/CRTV)×100%, TRTV: RTV of the treatment group; CRTV: RTV of the negative control group. T and C represent the average tumor volume at a certain time point in the drug administration group and the control group, respectively.

[2] = Solid-state stability evaluation (XRPD, HPLC); assay type: physicochemical; settings: listed as Phosphate salt crystal form A-V
Protocol: The following 6 test samples were placed under 25° C./60% RH and 40° C./75% RH conditions for 1 week, and then the physical and chemical stability of the samples was tested by XRPD and HPLC.
At the same time, after the p-toluenesulfonate salt crystal form A-II and crystal form B-III solids were placed at 80° C. for 24 hours, the physical and chemical stability of the samples were tested by XRPD and HPLC.

[3] = Hygroscopicity by dynamic moisture sorption (DVS); assay type: physicochemical; settings: DVS, listed as Phosphate salt crystal form A-V
Protocol: Dynamic moisture sorption (DVS): The curves were collected on a DVS Intrinsic of SMS (Surface Measurement Systems). At 25° C., the humidity range was 0% RH-95% RH, the step was 10% (the last step was 5%), and the dm/dt was 0.002%/min.
The hygroscopicity of the free compound of formula (I), mucate salt crystal form A-I, p-toluenesulfonate salt crystal forms A-II and B-III, di-p-toluenesulfonate salt crystal form A-IV and phosphate salt crystal form A-V was evaluated by dynamic moisture sorption instrument (DVS). Starting from 0% relative humidity (0% RH), the test collected the mass change percentage of the samples under constant temperature of 25° C. with humidity changes (0% RH-95% RH-0% RH).

[4] = Dynamic solubility in water, SGF, FaSSIF and FeSSIF; assay type: physicochemical; parameters: S (dynamic solubility): unit not given here; settings: listed as Phosphate salt crystal form A-V; for S (dynamic solubility): 37° C., feed 10 mg/mL
Protocol: Biological solvent Preparation • 1. […] 67.5 μL of concentrated hydrochloric acid (12 M) was added and the mixture was adjusted to a pH value of 1.8 with 1 M hydrochloric acid or 1 M NaOH solution. Purified water was added to make up to volume. • 2. Preparation of Fasted State Simulated Intestinal Fluid (FaSSIF): 0.17 g of anhydrous NaH2PO4, 0.021 g of NaOH, and 0.31 g of NaCl were weighed into a 50-mL volumetric flask. About 48 mL of purified water was added to dissolve the mixture completely, and the solution was adjusted to a pH value of 6.5 with 1 M hydrochloric acid or 1 M NaOH solution. Purified water was added to make up to volume. 0.11 g of SIF powder was added and dissolved completely. • 3. Preparation of Fed State Simulated Intestinal Fluid (FeSSIF): 0.41 mL of glacial acetic acid, 0.20 g of NaOH and 0.59 g of NaCl were weighed into a 50-mL volumetric flask. About 48 mL of purified water was added to dissolve the mixture completely, and the solution was adjusted to a pH value of 5.0 with 1 M hydrochloric acid or 1 M NaOH solution. Purified water was added to make up to volume. 0.56 g of SIF powder was added and dissolved completely.
The dynamic solubility of the free state, the mucate salt crystal form A-I, the p-toluenesulfonate salt crystal form A-II, the di-p-toluenesulfonate salt crystal form A-IV and the phosphate salt crystal form A-V of the compound of formula (I) in water and three biological solvents was evaluated.
The samples at each time point were centrifuged and filtered (0.45 μm PTFE filter head), and the HPLC concentration and pH value of the filtrate were determined.

## O=C(Nc1ccc(F)cc1)C1(C(=O)Nc2ccc(Oc3ccnc4cc(OCCCN5CCOCC5)c5c(c34)OCCO5)c(F)c2)CC1 [Example 5, N-(3-fluoro-4-((5-(3-morpholinopropoxy)-2,3-dihydro-[1,4]dioxano[2,3-f]quinolin-10-yl)oxy)phenyl)-N-(4-fluorophenyl)cyclopropane-1,1-dicarboxamide]
[1]; 7.5 mg/kg oral once a day, day 3
  T/C (relative tumor proliferation rate): 97.1%
[1]; 7.5 mg/kg oral once a day, day 7
  T/C (relative tumor proliferation rate): 80.6%
[1]; 7.5 mg/kg oral once a day, day 10
  T/C (relative tumor proliferation rate): 76.3%
[1]; 7.5 mg/kg oral once a day, day 14
  T/C (relative tumor proliferation rate): 68.2%
[1]; 7.5 mg/kg oral once a day, day 18
  T/C (relative tumor proliferation rate): 66.5%
[1]; 7.5 mg/kg oral once a day, day 21
  T/C (relative tumor proliferation rate): 58.8%
[1]; 15 mg/kg oral once a day, day 3
  T/C (relative tumor proliferation rate): 76.0%
[1]; 15 mg/kg oral once a day, day 7
  T/C (relative tumor proliferation rate): 49.9%
[1]; 15 mg/kg oral once a day, day 10
  T/C (relative tumor proliferation rate): 43.8%
[1]; 15 mg/kg oral once a day, day 14
  T/C (relative tumor proliferation rate): 37.1%
[1]; 15 mg/kg oral once a day, day 18
  T/C (relative tumor proliferation rate): 33.0%
[1]; 15 mg/kg oral once a day, day 21
  T/C (relative tumor proliferation rate): 26.2%
[2]; 25° C./60% RH, 1 week
  Purity: 99.13 area %
[2]; 40° C./75% RH, 1 week
  Purity: 99.13 area %
[2]; Starting
  Purity: 99.23 area %
[3]; 25° C./80% RH
  Moisture adsorption (25° C./80% RH): 6.43%
[3]; 25° C.
  Hygroscopicity: Hygroscopic
[4]; FaSSIF, 1 hour
  S (dynamic solubility): 0.028
  pH of the filtrate: 5.8
[4]; FaSSIF, 2 hours
  S (dynamic solubility): 0.030
  pH of the filtrate: 5.8
[4]; FaSSIF, 4 hours
  S (dynamic solubility): 0.024
  pH of the filtrate: 5.8
[4]; FaSSIF, 24 hours
  S (dynamic solubility): 0.080
  pH of the filtrate: 5.3
[4]; FeSSIF, 1 hour
  S (dynamic solubility): 1.5
  pH of the filtrate: 4.9
[4]; FeSSIF, 2 hours
  S (dynamic solubility): 1.4
  pH of the filtrate: 5.0
[4]; FeSSIF, 4 hours
  S (dynamic solubility): 1.3
  pH of the filtrate: 5.0
[4]; FeSSIF, 24 hours
  S (dynamic solubility): 0.20
  pH of the filtrate: 5.0
[4]; H2O, 1 hour
  S (dynamic solubility): 2.5
  pH of the filtrate: 4.5
[4]; H2O, 2 hours
  S (dynamic solubility): 2.6
  pH of the filtrate: 4.5
[4]; H2O, 4 hours
  S (dynamic solubility): 2.4
  pH of the filtrate: 4.5
[4]; H2O, 24 hours
  S (dynamic solubility): 2.5
  pH of the filtrate: 4.4
[4]; SGF, 1 hour
  S (dynamic solubility): 6.9
  pH of the filtrate: 2.7
[4]; SGF, 2 hours
  S (dynamic solubility): completely dissolved
[4]; SGF, 4 hours
  S (dynamic solubility): completely dissolved
[4]; SGF, 24 hours
  S (dynamic solubility): 6.4
  pH of the filtrate: 2.7

Source: patent publication US20260176285A1, “SALT OF DIOXANE QUINOLINE COMPOUND, CRYSTAL FORM THEREOF, PREPARATION METHODS THEREFOR AND USES THEREOF” (Beijing Scitech-MQ Pharmaceuticals Limited, priority 2022, published 2026)
